Here are results for 1 substance from patent US11298314B2, “Injectable composition for localized fat reduction without pain, edema, and side effects, and method for preparing same” (AMI PHARM CO., LTD., priority 2017, dated 2022).

Entries after “also recorded” stand apart in the source; their conditions may differ.

The test has as its system 3T3-L1 adipocytes. The test is described as follows: Lipolysis assay (glycerol release). Format: cell-based. The note with it: 48 hours; listed as PPC single. How it is done:
The glycerol activity assay was performed with the test materials to determine whether the cell death in the MTT assay was due to necrosis or lipolysis. Glycerol is a specific marker that increases when fat breaks down. Abcam Lipolysis Assay Kit (Colorimetric) was used according to the manufacturer's manual, and the method of the test was as follows: […] And then the lysis was induced. […] After adding the glycerol assay complex (50 μl) thereto, the solution was incubated at room temperature for 30 minutes. Absorbance was measured at OD 570 (using standard curve for absolute determination).

Regarding “1,2-diacyl-sn-glycero-3-phosphocholine [PPC]”, the “glycerol release / cytolytic activity” value is “slightly higher cytolytic activity than at 24 hours; also recorded: slightly higher cytolytic activity than that of 24 hours”.
